Activity calls are given as the source filed them. The calls are words filed in the database; no cut-off is given here.
Key:
[1] = test system: PANC-1; experiment: Anticancer activity against human PANC-1 cells assessed as reduction in cell viability in nutrient-deprived medium after 24 hrs by WST-8 assay; format: functional
[2] = test system: PANC-1; experiment: Induction of cell morphological changes in human PANC-1 cells assessed as dead cells at 0.1 uM after 24 hrs in nutrient-deprived medium by ethidium bromide-acridine orange staining based fluorescence microscopic analysis; format: functional
[3] = test system: PANC-1; experiment: Inhibition of PI3K/Akt/mTOR signaling in human PANC-1 cells assessed as decrease in mTOR level at 1 to 10 uM by Western blot analysis; format: cell-based; conditions: dose 1-10 µM, time 3-6 hrs, TDE = time-dependent effect
[4] = test system: PANC-1; experiment: Inhibition of PI3K/Akt/mTOR signaling in human PANC-1 cells assessed as decrease in PI3K p110beta level at 1 to 10 uM by Western blot analysis; format: cell-based; conditions: dose 1-10 µM, time 3-6 hrs, TDE = time-dependent effect
[5] = test system: PANC-1; experiment: Inhibition of PI3K/Akt/mTOR signaling in human PANC-1 cells assessed as decrease in PI3K p110alpha level measured after 3 to 6 hrs by Western blot analysis; format: cell-based; conditions: dose microM 1-10, time hrs 3-6
[6] = test system: PANC-1; experiment: Inhibition of colony formation in human PANC-1 cells in nutrient rich DMEM medium measured after 24 hrs by crystal violet staining based assay; format: functional, cell-based; conditions: dose microM 2.5-10, time 24.0 hrs
[7] = test system: PANC-1; experiment: Inhibition of PI3K/Akt/mTOR signaling in human PANC-1 cells assessed as decrease in pmTOR S2481 level measured after 3 to 6 hrs by Western blot analysis; format: cell-based; conditions: dose 1-10 µM, time 3-6 hrs
[8] = test system: PANC-1; experiment: Inhibition of cell migration in human PANC1 cells assessed as open wound area at 5 uM cultured in nutrient rich DMEM medium measured after 24 hrs by quantitative real-time imaging based wound healing assay (reference value: 15%); format: functional; set-up: scale not given: the % may be the effect or the level left
[9] = test system: PANC-1; experiment: Inhibition of PI3K/Akt/mTOR signaling in human PANC-1 cells assessed as decrease in pAkt at S473 level measured after 3 to 6 hrs by Western blot analysis; format: cell-based; conditions: dose 1-10 µM, time 3-6 hrs
[10] = test system: PANC-1; experiment: Inhibition of cell migration in human PANC1 cells assessed as open wound area at 5 uM cultured in nutrient rich DMEM medium measured after 12 hrs by quantitative real-time imaging based wound healing assay (reference value: 57.5%); format: functional; set-up: scale not given: the % may be the effect or the level left
[11] = test system: PANC-1; experiment: Inhibition of PI3K/Akt/mTOR signaling in human PANC-1 cells assessed as decrease in Akt level measured after 3 to 6 hrs by Western blot analysis; format: cell-based; conditions: dose 1-10 µM, time 3-6 hrs
[12] = test system: PANC-1; experiment: Inhibition of PI3K/Akt/mTOR signaling in human PANC-1 cells assessed as decrease in LC3-II level at 1 to 10 uM measured after 3 to 6 hrs by Western blot analysis; format: cell-based; conditions: dose 1-10 µM, time 3-6 hrs
[13] = test system: PANC-1; experiment: Inhibition of PI3K/Akt/mTOR signaling in human PANC-1 cells assessed as decrease in pmTOR S2481 level at 1 to 10 uM by Western blot analysis; format: cell-based; conditions: dose 1-10 µM, time 3-6 hrs, TDE = time-dependent effect
[14] = test system: PANC-1; experiment: Inhibition of PI3K/Akt/mTOR signaling in human PANC-1 cells assessed as decrease in mTOR level measured after 3 to 6 hrs by Western blot analysis; format: cell-based; conditions: dose 1-10 µM, time 3-6 hrs
[15] = test system: PANC-1; experiment: Inhibition of PI3K/Akt/mTOR signaling in human PANC-1 cells assessed as decrease in pAkt at S473 level at 1 to 10 uM by Western blot analysis; format: cell-based; conditions: dose 1-10 µM, time 3-6 hrs, TDE = time-dependent effect
[16] = test system: PANC-1; experiment: Inhibition of colony formation in human PANC-1 cells in nutrient rich DMEM medium at 2.5 uM measured after 24 hrs by crystal violet staining based assay (reference value: 33%); format: functional
[17] = test system: PANC-1; experiment: Inhibition of colony formation in human PANC-1 cells in nutrient rich DMEM medium at 5 uM measured after 24 hrs by crystal violet staining based assay (reference value: 33%); format: functional
[18] = test system: PANC-1; experiment: Inhibition of PI3K/Akt/mTOR signaling in human PANC-1 cells assessed as decrease in Akt level at 1 to 10 uM by Western blot analysis; format: cell-based; conditions: dose 1-10 µM, time 3-6 hrs, TDE = time-dependent effect
[19] = test system: PANC-1; experiment: Inhibition of colony formation in human PANC-1 cells in nutrient rich DMEM medium at 10 uM measured after 24 hrs by crystal violet staining based assay (reference value: 33%); format: functional
[20] = test system: PANC-1; experiment: Inhibition of PI3K/Akt/mTOR signaling in human PANC-1 cells assessed as decrease in PI3K p110alpha level at 1 to 10 uM by Western blot analysis; format: cell-based; conditions: dose 1-10 µM, time 3-6 hrs, TDE = time-dependent effect
[21] = test system: PANC-1; experiment: Inhibition of PI3K/Akt/mTOR signaling in human PANC-1 cells assessed as decrease in PI3K p110beta level measured after 3 to 6 hrs by Western blot analysis; format: cell-based; conditions: dose 1-10 µM, time 3-6 hrs

CC(C)CC(=O)c1c(O)c2c(c3c1OC1(O)C(C(=O)C(C)(C)C(=O)C1(C)C)[C@@H]3C(C)C)OC1=C(C(=O)C(C)(C)C(=O)C1(C)C)[C@@H]2C(C)C (some centres not stated)
PC50 [1]: 0.6 µM

C=C1CC[C@H]2[C@@H](C(C)C)C3=C(O[C@]2(C)CC[C@@H]2[C@@H]1CC2(C)C)C(C)(C)C(=O)C(C)(C)C3=O
PC50 [1]: 28.1 µM

CC(C)[C@H]1C[C@]2(CC[C@]3(C(C)C)C[C@H]23)OC2=C1C(=O)C(C)(C)C(=O)C2(C)C
PC50 [1]: 10 µM

CC(C)[C@@H]1C=C[C@@]2(C)OC3=C(C(=O)C(C)(C)C(=O)C3(C)C)[C@H](C(C)C)[C@H]2C1
PC50 [1]: 11.7 µM

CC(C)[C@@H]1C[C@]2(CC[C@H]3C[C@@H]2C3(C)C)OC2=C1C(=O)C(C)(C)C(=O)C2(C)C
PC50 [1]: 8 µM

COc1cc(C[C@H]2C(=O)OC[C@@H]2Cc2ccc(OC)c(OC)c2)ccc1O [ARCTIGENIN]
PC50 [1]: 0.7 µM

COc1ccc(-c2cc(=O)c3c(O)c(C)c(OC)c(C)c3o2)cc1
PC50 [1]: 1 µM

CC1(C)C=C2C(=O)C(C)(C)C(=O)C(C)(C)C2(O)OO1 (configuration not stated) [ENDOPEROXIDE HORMONE G3]
PC50 [1]: 32.3 µM

CC(C)=CCCC1=CCC2(C(=O)C(C)(C)C(=O)C(C)(C)C2=O)[C@@H](C(C)C)C1
PC50 [1]: 0.02 µM

CCC(C)[C@H](C1=C(O)C(C)(C)C(=O)C(C)(C)C1=O)c1c(O)c(C(=O)CC(C)C)c(O)c2c1O[C@]1(C)C=C[C@@H](C(C)C)C[C@H]21 (some centres not stated)
PC50 [1]: 0.01 µM | Activity [2]: Active

CC(C)[C@@H]1C=C[C@@]2(C)OC3=C(C(=O)C(C)(C)C(=O)C3(C)C)[C@@H](C(C)C)[C@H]2C1
PC50 [1]: 5 µM

CC(C)[C@@H]1C[C@]2(CC[C@]3(C(C)C)C[C@H]23)OC2=C1C(=O)C(C)(C)C(=O)C2(C)C
PC50 [1]: 3.9 µM

COc1cc([C@H]2c3cc(O)c(OC)cc3C[C@H](C)[C@@H]2C)ccc1O
PC50 [1]: 88.3 µM

Oc1cc(O)c2c(c1)O[C@H](c1ccc(O)c(O)c1)[C@@H](O)C2 [CIANIDANOL]
PC50 [1]: >100 µM

CC(C)CC(=O)c1c(O)c([C@H](C2=C(O)C(C)(C)C(=O)C(C)(C)C2=O)C(C)C)c(O)c2c1O[C@]1(C)C=C[C@@H](C(C)C)C[C@H]21
inhibition [3]: Tde | inhibition [4]: Tde | inhibition [5]: Dose-dependent effect | inhibition [6]: Dose-dependent effect | inhibition [7]: Dose-dependent effect | Activity [8]: 92% | inhibition [9]: Dose-dependent effect | PC50 [1]: 0.065 µM | Activity [10]: 95% | inhibition [11]: Dose-dependent effect | inhibition [12]: Active | inhibition [13]: Tde | inhibition [14]: Dose-dependent effect | inhibition [15]: Tde | inhibition at 2.5 µM [16]: 41% | inhibition at 5 µM [17]: 63% | inhibition [18]: Tde | inhibition at 10 µM [19]: 80% | inhibition [20]: Tde | Activity [2]: Active | inhibition [21]: Dose-dependent effect

COc1ccc(-c2cc(=O)c3c(O)c(C)c(OC)cc3o2)cc1
PC50 [1]: 6.1 µM

Source: ChEMBL document CHEMBL4699445, “Highly Potent Antiausterity Agents from Callistemon citrinus and Their Mechanism of Action against the PANC-1 Human Pancreatic Cancer Cell Line” (2020)
